Results taken from paper PMC3790268 (Bioorganic & medicinal chemistry letters, 2013).

Biological target: rat nNOS (Rattus norvegicus, UniProt P29476)
Conditions: compared with (R,R)-16a, (S,S)-16b and (R)-6b

decreased affinity for nNOS: 10 fold
Compound: Cc1cc(N)nc(COC[C@@H](N)[C@H](C)OCc2cc(C)cc(N)n2)c1 [(S,R)-16c]
